“And” between values parts separate entries of the source, which are not always exact repeats. Equal values may be shown once. Read-outs that look alike come from different tables or passages of the source.
Legend:
[1] = tested on: PANC-1; test: Cell viability (CellTiter-Glo, 72 h), PANC-1; type: cell-based, Human; conditions: PANC-1, 72 hours; for IC50: Homo sapiens; for Bottom: dose-response curve bottom; for Top: dose-response curve top
Method: (§1) Human pancreatic cancer cell lines (PSN1, PANC-1, Panc 04.03, MIA PaCa-2, BxPC-3, and Capan-1) were cultured in their respective culture media. PSN1 cell lines were maintained in RPMI 1640 + 10%FBS. MIA PaCa-2 cells were cultured in DMEM+10%FBS+5% horse serum. Panc 04.03 cells were grown in RPMI 1640 + 15%FBS+10μg/mL Insulin. PANC-1 cells were maintained in DMEM+10%FBS. BxPC-3 cells were cultured in RPMI 1640 + 10%FBS. Capan-1 cells were grown in IMDM+20%FBS. All cells were incubated at 37°C in a humidified atmosphere containing 5% CO2.
(§2) For assays, cells in the logarithmic growth phase were harvested, seeded to different concentrations at 2,000-6,000 cells/well in 96-well plates. Following overnight incubation, test compounds were added at various concentrations and incubated for 72 hours. Cell viability was assessed by the ATP concentration using the CellTiter-Glo reagent (Promega, Madison, WI 53711 USA), and luminescence values were recorded by a Multilabel Reader (PerkinElmer, Waltham, MA, USA).

[2] = tested on: Capan-1; test: Cell viability (CellTiter-Glo, 72 h), Capan-1; type: cell-based, Human; conditions: Capan-1, 72 hours; for Bottom: dose-response curve bottom; for Top: dose-response curve top; for IC50: Homo sapiens
Method: as §1, §2

[3] = molecular target: DYRK2 (Homo sapiens, UniProt Q92630); test: Kinase assay DYRK2; type: biochemical
Method: (§3) Serial dilutions in DMSO were prepared. PLK1 was serially diluted 5-fold from 10 μM, yielding concentrations from 10000 nM to 0.00512 nM. Other targets were serially diluted 3-fold from 10 μM, yielding concentrations from 10000 nM to 0.5 nM. We have used two kinase assays: HTRF assay and ADG-Glo assay.
(§4) For HTRF Assay, 2× ATP/substrate solution and 2× kinase solution were prepared in kinase reaction buffer. Using an Echo 655, 50 nL of each diluted compound was transferred to a 384-well detection plate. The plate was centrifuged at 1000 rpm for 1 minute. 2.5 μL of 2× kinase solution was added to each well. The plate was incubated at 25°C for 10 minutes. 2.5 μL of 2× ATP/substrate solution was added to each well. The plate was centrifuged at 1000 rpm for 1 minute. The plate was incubated at 25°C for 40 minutes. 2× XL665 and antibody detection reagent were prepared in detection buffer. 5 μL of the prepared kinase detection reagent was added to each well. The plate was centrifuged at 1000 rpm for 1 minute. The plate was incubated at 25°C for 1 hour. Fluorescence signals at 620 nm (Cryptate) and 665 nm (XL665) were measured using a multifunction plate reader.
(§5) For ADP-Glo Assay, 2× ATP/substrate solution and 2× kinase solution were prepared in kinase reaction buffer. […] Luminescence signals were measured using a multifunction plate reader.

[4] = molecular target: CK1δ (Homo sapiens, UniProt P48730); test: Kinase assay CK1δ; type: biochemical
Method: as §3, §4, §5

[5] = molecular target: DRAK1 (Homo sapiens, UniProt Q9UEE5); test: Kinase assay DRAK1; type: biochemical
Method: as §3, §4, §5

[6] = molecular target: CLK1 (Homo sapiens, UniProt P49759); test: Kinase assay CLK1; type: biochemical
Method: as §3, §4, §5

[7] = molecular target: CK1α (Homo sapiens, UniProt P48729); test: Kinase assay CK1α; type: biochemical
Method: as §3, §4, §5

[8] = Caco-2 permeability assay; type: in vitro ADME; conditions: for Permeability classification: Caco-2, by comparing Propranolol, Digoxin, Prazosin; for recovery at 2 h, 5 μM / Papp A→B at 2 h, 5 μM / Papp B→A at 2 h, 5 μM: human; for Papp A→B at 2 h, 5 μM / Papp B→A at 2 h, 5 μM: Caco-2, 5 μM
Method: Caco-2 cells were cultured in 10% FBS DMEM for 14-21 days before assays. […] HBSS was added to the opposite chamber. After 2 hours incubation at 37°C, samples were analyzed by LC-MS/MS. Fluorescein leakage was tested by adding 100 μM fluorescein to the upper chamber and measuring fluorescence after 30 minutes.

[9] = tested on: HCT 116 CDX model; test: HCT 116 CDX model; type: in vivo, BALB/c nude mouse; conditions: for Tumor growth: BALB/c nude mice; for Mice died: BALB/c nude, 8 mice/group
Method: These studies were performed at Yikon Medical (Beijing, China). Cancer cell line HCT 116 or BxPC-3 were cultured in 10% FBS RPMI-1640 medium plus penicillin, streptomycin, and glutamine at 37°C and 5% CO2 until reaching confluency. Cells were then prepared for inoculation. 5×10⁷ cells/mL cells in 100 µL were inoculated subcutaneously into the right flank of each female BALB/c nude mouse for HCT 116 cell line or female NOD SCID mouse for BxPC-3 cell line. […] […] Mice were dosed at least 10 days and were monitored for 30 days.
(§6) TGI was calculated as follows.

[10] = tested on: PSN-1 CDX model; test: PSN-1 CDX model, tumor growth inhibition after 4-day dosing; type: in vivo, M-NSG mice; conditions: for TGI / Tumor volume Day 4: 4-day dosing; for Tumor volume Day 0: baseline
Method: For in vivo PK/PD studies, a PSN1 tumor model was established in female M-NSG (NOD.Cg-Prkdc^scidIl2rg^em1Smoc ) mice, which are severely immunodeficient mice lacking the interleukin 2 receptor gamma chain on a NOD.Cg-Prkdc^scid background, at Shanghai Model Organisms (Shanghai, China). Briefly, 5 × 10^6 PSN1 cells were inoculated subcutaneously into each M-NSG mouse. Once the tumors reached approximately 500 mm³, compounds were administered orally at various dosages. For PK studies, blood samples were collected at 0, 0.25, 0.5, 1, 2, 6, and 24 hours post-dose. The sera from blood were then obtained and stored at -70°C. For PD studies, tumors were harvested 2 hours after dosing and stored at -70°C.The serum and tumor samples were then transported to PRECEDO (Hefei, Anhui, China) for further PK/PD studies.
as §6

[11] = Caco-2, Caco-2, A-B, read-out: Recovery A-B%
[12] = Caco-2, Caco-2, B-A, read-out: Recovery B-A%

Sequence of CK1δ (P48730 whole entry): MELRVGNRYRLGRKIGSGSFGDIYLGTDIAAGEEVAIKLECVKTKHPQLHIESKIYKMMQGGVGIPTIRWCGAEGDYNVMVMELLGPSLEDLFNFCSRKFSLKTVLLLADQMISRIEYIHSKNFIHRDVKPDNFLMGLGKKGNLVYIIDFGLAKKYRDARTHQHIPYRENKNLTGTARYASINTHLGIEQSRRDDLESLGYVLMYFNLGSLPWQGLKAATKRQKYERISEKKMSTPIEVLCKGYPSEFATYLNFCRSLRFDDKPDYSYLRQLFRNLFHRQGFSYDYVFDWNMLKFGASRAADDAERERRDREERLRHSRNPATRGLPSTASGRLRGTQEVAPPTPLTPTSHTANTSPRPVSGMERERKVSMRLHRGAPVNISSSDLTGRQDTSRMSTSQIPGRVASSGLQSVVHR
Sequence of CK1α (P48729 whole entry): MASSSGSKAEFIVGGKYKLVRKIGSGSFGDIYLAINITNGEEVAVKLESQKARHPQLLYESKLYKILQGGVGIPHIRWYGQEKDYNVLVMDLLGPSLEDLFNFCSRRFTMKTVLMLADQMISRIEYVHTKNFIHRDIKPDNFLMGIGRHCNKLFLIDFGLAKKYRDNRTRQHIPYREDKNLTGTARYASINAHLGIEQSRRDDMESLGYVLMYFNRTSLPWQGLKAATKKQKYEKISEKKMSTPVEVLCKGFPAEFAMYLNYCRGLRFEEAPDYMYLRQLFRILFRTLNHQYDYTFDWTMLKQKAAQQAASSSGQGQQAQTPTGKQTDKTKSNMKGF
Sequence of CLK1 (P49759 whole entry): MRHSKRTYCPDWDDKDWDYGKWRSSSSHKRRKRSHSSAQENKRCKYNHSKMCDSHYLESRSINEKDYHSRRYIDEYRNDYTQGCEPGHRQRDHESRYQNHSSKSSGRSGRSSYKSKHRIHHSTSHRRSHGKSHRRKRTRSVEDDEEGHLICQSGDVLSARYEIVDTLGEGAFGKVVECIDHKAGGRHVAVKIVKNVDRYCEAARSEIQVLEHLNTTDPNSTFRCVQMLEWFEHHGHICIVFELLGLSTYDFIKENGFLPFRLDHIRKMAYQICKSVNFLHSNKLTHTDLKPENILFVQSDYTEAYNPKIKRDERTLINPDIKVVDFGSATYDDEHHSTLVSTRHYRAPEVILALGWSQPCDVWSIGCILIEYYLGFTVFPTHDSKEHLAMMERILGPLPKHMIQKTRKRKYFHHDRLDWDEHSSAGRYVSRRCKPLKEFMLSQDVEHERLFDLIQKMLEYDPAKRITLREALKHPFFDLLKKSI
Sequence of DYRK2 (Q92630 whole entry): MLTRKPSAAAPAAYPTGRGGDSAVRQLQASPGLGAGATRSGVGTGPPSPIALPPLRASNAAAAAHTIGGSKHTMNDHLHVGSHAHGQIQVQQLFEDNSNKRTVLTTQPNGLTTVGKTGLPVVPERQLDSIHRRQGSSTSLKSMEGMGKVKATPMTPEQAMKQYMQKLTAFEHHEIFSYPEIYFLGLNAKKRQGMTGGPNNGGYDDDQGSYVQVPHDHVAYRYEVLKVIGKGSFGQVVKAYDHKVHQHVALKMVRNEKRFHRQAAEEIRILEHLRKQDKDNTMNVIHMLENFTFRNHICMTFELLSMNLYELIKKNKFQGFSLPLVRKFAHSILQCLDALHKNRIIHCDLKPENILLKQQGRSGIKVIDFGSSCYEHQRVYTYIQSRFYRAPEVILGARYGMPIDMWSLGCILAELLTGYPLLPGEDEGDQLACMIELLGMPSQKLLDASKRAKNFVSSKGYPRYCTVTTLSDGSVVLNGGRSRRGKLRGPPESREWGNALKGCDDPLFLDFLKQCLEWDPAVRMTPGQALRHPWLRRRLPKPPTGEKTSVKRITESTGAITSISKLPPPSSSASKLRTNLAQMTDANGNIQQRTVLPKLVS
Sequence of DRAK1 (Q9UEE5 whole entry, species assumed): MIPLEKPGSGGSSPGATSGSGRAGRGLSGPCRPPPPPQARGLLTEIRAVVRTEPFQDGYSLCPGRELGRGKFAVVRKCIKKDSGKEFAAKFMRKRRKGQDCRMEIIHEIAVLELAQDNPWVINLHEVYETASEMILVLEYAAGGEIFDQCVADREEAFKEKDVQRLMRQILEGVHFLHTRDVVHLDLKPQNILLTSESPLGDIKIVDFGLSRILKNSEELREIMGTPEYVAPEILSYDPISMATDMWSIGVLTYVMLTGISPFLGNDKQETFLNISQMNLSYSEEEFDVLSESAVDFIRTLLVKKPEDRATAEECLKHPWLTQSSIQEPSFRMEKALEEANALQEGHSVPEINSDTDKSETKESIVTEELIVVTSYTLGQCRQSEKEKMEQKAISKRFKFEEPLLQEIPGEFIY

Structure (SMILES)	IC50 [1]	Bottom [1]	Top [1]	Bottom [2]	Top [2]	IC50 [2]	IC50 [3]	IC50 [4]	IC50 [5]	IC50 [6]	IC50 [7]	Permeability classification [8]	recovery at 2 h, 5 μM [8, 11]	recovery at 2 h, 5 μM [8, 12]	Papp A→B at 2 h, 5 μM [8]	Papp B→A at 2 h, 5 μM [8]	Tumor growth [9]	Mice died ([9]; 60 mg/kg, 60 mg/kg)	TGI ([10]; 15 mg/kg)	Tumor volume Day 4 ([10]; 15 mg/kg)	also measured
CN1CCN(c2ccc(OC(F)(F)F)c(Nc3ncc4c(n3)-c3c(c(C(N)=O)nn3CCO)CC4)c2)CC1 [NMS-P937]	142 nM	-2.5	41.1	2.5	56.5	127 nM	1150 nM	59.3 nM	44.6 nM	235 nM	184 nM	medium permeability	71.6%	93.3%	6.1 ×10⁻⁶ cm/s	34.2 ×10⁻⁶ cm/s	inhibited the growth of tumors in a dose-dependent manner	three mice died and 3/8	51.3%	166.43 ± 5.79 mm^3	Body weight ([9]; 60 mg/kg): significant loss of body weight; Mice died ([9]; 30 mg/kg, 30 mg/kg): one mouse died and 1/8; Tumor volume Day 0 ([10]; 15 mg/kg): 119.66 ± 1.67 mm^3; TGI ([10]; 30 mg/kg): 68.1%; Tumor volume Day 4 ([10]; 30 mg/kg): 149.94 ± 4.21 mm^3; Tumor volume Day 0 ([10]; 30 mg/kg): 119.38 ± 2.09 mm^3; TGI ([10]; 60 mg/kg): 81.2%; Tumor volume Day 4 ([10]; 60 mg/kg): 137.49 ± 5.16 mm^3; Tumor volume Day 0 ([10]; 60 mg/kg): 119.42 ± 2.14 mm^3
[2H]C1([2H])N(C)C([2H])([2H])C([2H])([2H])N(c2ccc(OC(F)(F)F)c(Nc3ncc4c(n3)-c3c(c(C(N)=O)nn3CCO)CC4)c2)C1([2H])[2H] [PR00012]	237 nM	9.8	53.1	15.6	68.5	115 nM	81.4 nM	51.8 nM	48.7 nM	196 nM	182 nM	medium permeability	79.7%	89.7%	5.2 ×10⁻⁶ cm/s	34.7 ×10⁻⁶ cm/s	inhibited the growth of tumors in a dose-dependent manner	one mouse died and 1/8	55.5%	162.12 ± 4.11 mm^3	Mice died ([9]; 30 mg/kg): No mice died; Tumor volume Day 0 ([10]; 15 mg/kg): 119.44 ± 1.78 mm^3; TGI ([10]; 30 mg/kg): 75.0%; Tumor volume Day 4 ([10]; 30 mg/kg): 143.49 ± 5.64 mm^3; Tumor volume Day 0 ([10]; 30 mg/kg): 119.48 ± 1.95 mm^3; TGI ([10]; 60 mg/kg): 91.2%; Tumor volume Day 4 ([10]; 60 mg/kg): 127.93 ± 1.60 mm^3; Tumor volume Day 0 ([10]; 60 mg/kg): 119.48 ± 1.72 mm^3

Reference: article PMC11968394, “The effect of deuterated PLK1 inhibitor on its safety and efficacy in vivo” (Frontiers in Oncology, 2025)
